Measured values: ChEMBL document CHEMBL5550106, “Recent advances in the exploration of oxazolidinone scaffolds from compound development to antibacterial agents and other bioactivities” (Eur J Med Chem, 2024)
In brackets after ≈: the same amount, converted by molar mass.

Legend:
Escherichia coli [1] = assay: Antibacterial activity against efflux pump-efficient Escherichia coli MG1655 assessed as bacterial growth inhibition; type: functional
Staphylococcus aureus = assay: Antibacterial activity against Staphylococcus aureus assessed as reduction in bacterial growth incubated for 24 hrs by broth microdilution method; type: functional
Escherichia coli [2] = assay: Antimicrobial activity against wild type Escherichia coli MG1655 assessed as inhibition of microbial growth; type: functional
Escherichia coli [3] = assay: Antibacterial activity against Escherichia coli MG1655 in presence of polymyxin B nonapeptide; type: functional
SK-OV-3 = assay: Antiproliferative activity against human SK-OV-3 cells assessed as reduction in cell viability incubated for 24 hrs by CCK8 assay; type: functional, cell-based; conditions: SK-OV-3, 24 h
L02 = assay: Antiproliferative activity against human L02 cells assessed as inhibition of cell growth incubated for 24 hrs by MTT assay; type: functional, cell-based; conditions: L02, 24 h
NCI-H460 = assay: Antiproliferative activity against human NCI-H460 cells assessed as inhibition of cell growth by MTT assay; type: functional, cell-based
MGC-803 = assay: Antiproliferative activity against human MGC-803 cells assessed as reduction in cell growth by MTT assay; type: functional, cell-based

Compound	MIC (Escherichia coli [1])	MIC (Staphylococcus aureus)	MIC (Escherichia coli [2])	MIC (Escherichia coli [3])	IC50 (SK-OV-3)	IC50 (L02)	IC50 (NCI-H460)	IC50 (MGC-803)
NCc1ccc(-c2ccc(N3C[C@H](CO)OC3=O)cc2F)cc1O	8 µg/mL (≈ 24.1 µM)	2.8 µg/mL (≈ 8.43 µM)	84 µg/mL	32 µg/mL				
O=C1O[C@@H](CO)CN1c1ccc(-c2ccc([N+](=O)[O-])c(O)c2)c(F)c1	64 µg/mL (≈ 184 µM)	0.5 µg/mL (≈ 1.44 µM)	64 µg/mL	64 µg/mL				
O=C1O[C@@H](CO)CN1c1ccc(-c2ccccc2)c(F)c1	16 µg/mL (≈ 55.7 µM)	1 µg/mL (≈ 3.48 µM)	> 64 µg/mL	16 µg/mL				
Cc1ccccc1NCC(O)COC(=O)[C@]1(C)CCC[C@]2(C)c3ccc(C(C)C)cc3CCC12 (stereo not given in full)					≥ 14.9 µM	≥ 28.3 µM	≥ 15.6 µM	7.1 µM
CC(C)c1ccc2c(c1)CCC1[C@](C)(C(=O)OCC(O)CNc3ccc(Br)cc3)CCC[C@]21C (stereo not given in full)					≥ 14.9 µM	≥ 28.3 µM	≥ 15.6 µM	7.1 µM
CC(C)c1ccc2c(c1)CCC1[C@](C)(C(=O)OCC(O)CNc3cccc(Cl)c3)CCC[C@]21C (stereo not given in full)					≥ 14.9 µM	≥ 28.3 µM	≥ 15.6 µM	7.1 µM
CC(C)c1ccc2c(c1)CCC1[C@](C)(C(=O)OCC3CN(c4ccccc4F)C(=O)O3)CCC[C@]21C (stereo not given in full)					≥ 4.1 µM	≥ 26.4 µM	≥ 4.3 µM	3.82 µM
C#Cc1cccc(NCC(O)COC(=O)[C@]2(C)CCC[C@]3(C)c4ccc(C(C)C)cc4CCC23)c1 (stereo not given in full)					≥ 14.9 µM	≥ 28.3 µM	≥ 15.6 µM	7.1 µM
COc1cccc(N2CC(COC(=O)[C@]3(C)CCC[C@]4(C)c5ccc(C(C)C)cc5CCC34)OC2=O)c1 (stereo not given in full)					≥ 4.1 µM	≥ 26.4 µM	≥ 4.3 µM	3.82 µM
CC(C)c1ccc2c(c1)CCC1[C@](C)(C(=O)OCC3CN(c4ccc(Cl)cc4)C(=O)O3)CCC[C@]21C (stereo not given in full)					≥ 4.1 µM	≥ 26.4 µM	≥ 4.3 µM	3.82 µM
COc1ccccc1N1CC(COC(=O)[C@]2(C)CCC[C@]3(C)c4ccc(C(C)C)cc4CCC23)OC1=O (stereo not given in full)					≥ 4.1 µM	≥ 26.4 µM	≥ 4.3 µM	3.82 µM
O=Cc1ccc(-c2ccc(N3C[C@H](CO)OC3=O)cc2F)cc1O	16 µg/mL (≈ 48.3 µM)	< 0.5 µg/mL	128 µg/mL	8 µg/mL				
Cc1ccc(NCC(O)COC(=O)[C@]2(C)CCC[C@]3(C)c4ccc(C(C)C)cc4CCC23)cc1 (stereo not given in full)					≥ 14.9 µM	≥ 28.3 µM	≥ 15.6 µM	7.1 µM
CC(C)c1ccc2c(c1)CCC1[C@](C)(C(=O)OCC3CN(c4cccc(Cl)c4)C(=O)O3)CCC[C@]21C (stereo not given in full)					≥ 4.1 µM	≥ 26.4 µM	≥ 4.3 µM	3.82 µM
CC(C)c1ccc2c(c1)CCC1[C@](C)(C(=O)OCC(O)CNc3ccc(F)cc3)CCC[C@]21C (stereo not given in full)					≥ 14.9 µM	≥ 28.3 µM	≥ 15.6 µM	7.1 µM
CC(C)c1ccc2c(c1)CCC1[C@](C)(C(=O)OCC3CN(c4ccc(F)cc4)C(=O)O3)CCC[C@]21C (stereo not given in full)					≥ 4.1 µM	≥ 26.4 µM	≥ 4.3 µM	3.82 µM
Cc1cccc(N2CC(COC(=O)[C@]3(C)CCC[C@]4(C)c5ccc(C(C)C)cc5CCC34)OC2=O)c1 (stereo not given in full)					≥ 4.1 µM	≥ 26.4 µM	≥ 4.3 µM	3.82 µM
CC(C)c1ccc2c(c1)CCC1[C@](C)(C(=O)OCC3CN(c4ccccc4)C(=O)O3)CCC[C@]21C (stereo not given in full)					≥ 4.1 µM	≥ 26.4 µM	≥ 4.3 µM	3.82 µM
Cc1ccccc1N1CC(COC(=O)[C@]2(C)CCC[C@]3(C)c4ccc(C(C)C)cc4CCC23)OC1=O (stereo not given in full)					≥ 4.1 µM	≥ 26.4 µM	≥ 4.3 µM	3.82 µM
C#Cc1cccc(N2CC(COC(=O)[C@]3(C)CCC[C@]4(C)c5ccc(C(C)C)cc5CCC34)OC2=O)c1 (stereo not given in full)					≥ 4.1 µM	≥ 26.4 µM	≥ 4.3 µM	3.82 µM

Compound	MIC (Escherichia coli [1])	MIC (Staphylococcus aureus)	MIC (Escherichia coli [2])	MIC (Escherichia coli [3])	IC50 (SK-OV-3)	IC50 (L02)	IC50 (NCI-H460)	IC50 (MGC-803)
Nc1cc(-c2ccc(N3C[C@H](CO)OC3=O)cc2F)ccc1O	16 µg/mL (≈ 50.3 µM)	4 µg/mL (≈ 12.6 µM)	> 64 µg/mL	64 µg/mL				
COc1ccc(N2CC(COC(=O)[C@]3(C)CCC[C@]4(C)c5ccc(C(C)C)cc5CCC34)OC2=O)cc1 (stereo not given in full)					≥ 4.1 µM	≥ 26.4 µM	≥ 4.3 µM	3.82 µM
CC(C)c1ccc2c(c1)CCC1[C@](C)(C(=O)OCC3CN(c4ccc(Br)cc4)C(=O)O3)CCC[C@]21C (stereo not given in full)					≥ 4.1 µM	≥ 26.4 µM	≥ 4.3 µM	3.82 µM
N#Cc1ccc(O)cc1-c1ccc(N2C[C@H](CO)OC2=O)cc1F	64 µg/mL (≈ 195 µM)	32 µg/mL (≈ 97.5 µM)	> 256 µg/mL	128 µg/mL				
COc1cccc(NCC(O)COC(=O)[C@]2(C)CCC[C@]3(C)c4ccc(C(C)C)cc4CCC23)c1 (stereo not given in full)					≥ 14.9 µM	≥ 28.3 µM	≥ 15.6 µM	7.1 µM
O=C1O[C@@H](CO)CN1c1ccc(-c2cc(O)ccc2F)c(F)c1	16 µg/mL (≈ 49.8 µM)	2 µg/mL (≈ 6.23 µM)	> 256 µg/mL	16 µg/mL				
COc1ccccc1NCC(O)COC(=O)[C@]1(C)CCC[C@]2(C)c3ccc(C(C)C)cc3CCC12 (stereo not given in full)					≥ 14.9 µM	≥ 28.3 µM	≥ 15.6 µM	7.1 µM
Cc1ccc(N2CC(COC(=O)[C@]3(C)CCC[C@]4(C)c5ccc(C(C)C)cc5CCC34)OC2=O)cc1 (stereo not given in full)					≥ 4.1 µM	≥ 26.4 µM	≥ 4.3 µM	3.82 µM
O=C1O[C@@H](CO)CN1c1ccc(-c2cccc(O)c2F)c(F)c1	32 µg/mL (≈ 99.6 µM)	2 µg/mL (≈ 6.23 µM)	> 256 µg/mL	32 µg/mL				
Cc1cccc(NCC(O)COC(=O)[C@]2(C)CCC[C@]3(C)c4ccc(C(C)C)cc4CCC23)c1 (stereo not given in full)					≥ 14.9 µM	≥ 28.3 µM	≥ 15.6 µM	7.1 µM
Nc1ccc(-c2ccc(N3C[C@H](CO)OC3=O)cc2F)cc1O	32 µg/mL (≈ 101 µM)	4 µg/mL (≈ 12.6 µM)	> 64 µg/mL	32 µg/mL				
COc1ccc(NCC(O)COC(=O)[C@]2(C)CCC[C@]3(C)c4ccc(C(C)C)cc4CCC23)cc1 (stereo not given in full)					≥ 14.9 µM	≥ 28.3 µM	≥ 15.6 µM	7.1 µM
CC(C)c1ccc2c(c1)CCC1[C@](C)(C(=O)OCC(O)CNc3cccc(F)c3)CCC[C@]21C (stereo not given in full)					≥ 14.9 µM	≥ 28.3 µM	≥ 15.6 µM	7.1 µM
CC(C)c1ccc2c(c1)CCC1[C@](C)(C(=O)OCC(O)CNc3ccccc3)CCC[C@]21C (stereo not given in full)					≥ 14.9 µM	≥ 28.3 µM	≥ 15.6 µM	7.1 µM
CC(C)c1ccc2c(c1)CCC1[C@](C)(C(=O)OCC(O)CNc3ccccc3F)CCC[C@]21C (stereo not given in full)					≥ 14.9 µM	≥ 28.3 µM	≥ 15.6 µM	7.1 µM
CC(C)c1ccc2c(c1)CCC1[C@](C)(C(=O)OCC(O)CNc3cccc(Br)c3)CCC[C@]21C (stereo not given in full)					≥ 14.9 µM	≥ 28.3 µM	≥ 15.6 µM	7.1 µM
CC(C)c1ccc2c(c1)CCC1[C@](C)(C(=O)OCC(O)CNc3ccc(Cl)cc3)CCC[C@]21C (stereo not given in full)					≥ 14.9 µM	≥ 28.3 µM	≥ 15.6 µM	7.1 µM
CC(C)c1ccc2c(c1)CCC1[C@](C)(C(=O)OCC3CN(c4cccc(F)c4)C(=O)O3)CCC[C@]21C (stereo not given in full)					≥ 4.1 µM	≥ 26.4 µM	≥ 4.3 µM	3.82 µM
O=C1O[C@@H](CO)CN1c1ccc(-c2ccc(F)c(O)c2)c(F)c1	16 µg/mL (≈ 49.8 µM)	2 µg/mL (≈ 6.23 µM)	> 64 µg/mL	16 µg/mL				
CC(C)c1ccc2c(c1)CCC1[C@](C)(C(=O)OCC3CN(c4cccc(Br)c4)C(=O)O3)CCC[C@]21C (stereo not given in full)					≥ 4.1 µM	≥ 26.4 µM	≥ 4.3 µM	3.82 µM
